Literature values as cited in US20050175599A1, “Process for producing substance” (Kyowa Hakko Kogyo Co., Ltd., priority 2001, published 2005).

How the values were obtained:
HeLa cells = settings: ubiquinone added to media; Protoplasma, 184, 214 (1995); cited from earlier work
bovine embryo cells = settings: ubiquinone added to media; Biol. Reprod., 61, 541 (1999); cited from earlier work
murine fibroblast cells = settings: ubiquinone added to media; Protoplasma, 184, 214 (1995); cited from earlier work

Measured: effect on cell growth

COC1=C(OC)C(=O)C(C/C=C(\C)CC/C=C(\C)CC/C=C(\C)CC/C=C(\C)CC/C=C(\C)CC/C=C(\C)CC/C=C(\C)CC/C=C(\C)CC/C=C(\C)CCC=C(C)C)=C(C)C1=O [ubiquinone, 2,3-dimethoxy-5-methyl-6-polyprenyl-1,4-benzoquinone]
promotes the growth: all assays above
